Test results reported in the supplement of paper PMC11061612.

Assays:
[1] = system: ALL-SIL (T-Lymphoblastic Leukemia); test: Bliss excess, mean over the matrix (fraction); higher = more synergy
Outline: (§1)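 Cell lines in DMEM/F12 or RPMI with 10% FBS were plated in 1536-well plates, held 24 hours at 37°C, 5% CO2, then given two-drug dose matrices for 72 hours (DMSO typically 0.2%). Viability was read by CellTiter-Glo 2.0 luminescence and scaled as inhibition from 0 (vehicle wells) to 1 (blank wells). Combination Emax is the second-highest inhibition in the matrix; Bliss excess is observed combination effect minus expected EA + EB − EA·EB, EA and EB being single-agent effects.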

[2] = system: EJM (Plasma Cell Myeloma); test: as above
Outline: as §1

EW-1 (Ewing's Sarcoma) = test: as above
Outline: as §1

[3] = system: G-401 (Other Solid Carcinomas); test: as above
Outline: as §1

[4] = system: HCC1500 (Breast Carcinoma); test: as above
Outline: as §1

[5] = system: HCC1937 (Breast Carcinoma); test: as above
Outline: as §1

[6] = system: HCC2998 (Colorectal Carcinoma); test: as above
Outline: as §1

Hey (Ovarian Carcinoma) = test: as above
Outline: as §1

[7] = system: KOPN-8 (B-Lymphoblastic Leukemia); test: as above
Outline: as §1

[8] = system: LC-1-sq (Squamous Cell Lung Carcinoma); test: as above
Outline: as §1

[9] = system: NCI-H2122 (Lung Adenocarcinoma); test: as above
Outline: as §1

[10] = system: NCI-H650 (Lung Adenocarcinoma); test: as above
Outline: as §1

[11] = system: SK-LU-1 (Lung Adenocarcinoma); test: as above
Outline: as §1

[12] = system: EJM (Plasma Cell Myeloma); test: combination Emax (second highest fraction inhibited in the dose matrix, 72 h); higher = more inhibition; extreme values may be limits of the assay
Outline: as §1

[13] = system: HCC1937 (Breast Carcinoma); test: as above
Outline: as §1

[14] = system: HCC2998 (Colorectal Carcinoma); test: as above
Outline: as §1

[15] = system: LC-1-sq (Squamous Cell Lung Carcinoma); test: as above
Outline: as §1

[16] = system: NCI-H1838 (Lung Adenocarcinoma); test: as above
Outline: as §1

[17] = system: NCI-H2122 (Lung Adenocarcinoma); test: as above
Outline: as §1

[18] = system: OACM5-1 (Esophageal Adenocarcinoma); test: as above
Outline: as §1
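For Bliss excess, mean over the matrix in this document: after 72 h of two-drug dosing.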

Structure (SMILES) | Bliss excess [1] | Bliss excess [2] | Bliss excess (EW-1 (Ewing's Sarcoma)) | Bliss excess [3] | Bliss excess [4] | Bliss excess [5] | Bliss excess [6] | Bliss excess (Hey (Ovarian Carcinoma)) | Bliss excess [7] | Bliss excess [8] | Bliss excess [9] | Bliss excess [10] | Bliss excess [11] | combination Emax [12] | combination Emax [13] | combination Emax [14] | combination Emax [15] | combination Emax [16] | combination Emax [17] | combination Emax [18]
CN(CCO)CC[C@H](CSc1ccccc1)Nc1ccc(S(=O)(=O)NC(=O)c2ccc(N3CCC([C@@H](O)c4ccccc4-c4ccc(Cl)cc4)CC3)cc2)cc1S(=O)(=O)C(F)(F)F [AZD4320] + C1CN(CCC1(C(=O)N[C@@H](CCO)C2=CC=C(C=C2)Cl)N)C3=NC=NC4=C3C=CN4 [Capivasertib] (first compound max 1 µM, 7x7, partner max 3 µM) | -0.0464 | -0.0272 | -0.0009 | -0.0591 | -0.0178 | -0.0881 | -0.0128 | -0.0385 | -0.0266 | -0.02 | -0.0234 | -0.0252 | -0.0558 | 0.525 | 0.434 | 0.881 | 0.134 | 0.178 | 0.411 | 0.617
CN(CCO)CC[C@H](CSc1ccccc1)Nc1ccc(S(=O)(=O)NC(=O)c2ccc(N3CCC([C@@H](O)c4ccccc4-c4ccc(Cl)cc4)CC3)cc2)cc1S(=O)(=O)C(F)(F)F [AZD4320] + CC(=O)O[C@H]1C(=O)[C@@]2(C)[C@H]([C@H](OC(=O)c3ccccc3)[C@]3(O)C[C@H](OC(=O)[C@H](O)[C@@H](NC(=O)c4ccccc4)c4ccccc4)C(C)=C1C3(C)C)[C@]1(OC(C)=O)CO[C@@H]1C[C@@H]2O [Paclitaxel] (first compound max 1 µM, 7x7, partner max 3 µM) |  |  |  |  |  |  |  |  |  |  |  |  | 0.116 |  |  |  |  |  |  | 
CN(CCO)CC[C@H](CSc1ccccc1)Nc1ccc(S(=O)(=O)NC(=O)c2ccc(N3CCC([C@@H](O)c4ccccc4-c4ccc(Cl)cc4)CC3)cc2)cc1S(=O)(=O)C(F)(F)F [AZD4320] + CCN(CCO)CCCOc1ccc2c(Nc3cc(CC(=O)Nc4cccc(F)c4)[nH]n3)ncnc2c1 [AZD2811] (first compound max 1 µM, 7x7, partner max 1 µM) | -0.0124 | 0.0454 | 0.146 | 0.0082 | 0.0758 | -0.0513 | 0.103 | -0.0022 | -0.0249 | 0.0294 | 0.0001 | -0.0457 | -0.0232 | 0.406 | 0.489 | 0.753 | 0.264 | 0.216 | 0.794 | 0.398
CN(CCO)CC[C@H](CSc1ccccc1)Nc1ccc(S(=O)(=O)NC(=O)c2ccc(N3CCC([C@@H](O)c4ccccc4-c4ccc(Cl)cc4)CC3)cc2)cc1S(=O)(=O)C(F)(F)F [AZD4320] + C[C@@H](Nc1cc(F)cc(F)c1)c1cc(C(=O)N(C)C)cc2c(=O)cc(N3CCOCC3)oc12 [AZD8186] (first compound max 1 µM, 7x7, partner max 3 µM) | 0.0208 | 0.0837 | 0.0604 | -0.101 | 0.016 | -0.008 | -0.0212 | -0.0027 | 0.0392 | 0.022 | 0 | 0.0081 |  | 0.511 | 0.63 | 0.884 | 0.336 | 0.258 | 0.536 | 0.404
CN(CCO)CC[C@H](CSc1ccccc1)Nc1ccc(S(=O)(=O)NC(=O)c2ccc(N3CCC([C@@H](O)c4ccccc4-c4ccc(Cl)cc4)CC3)cc2)cc1S(=O)(=O)C(F)(F)F [AZD4320] + Cn1cnc2c(F)c(Nc3ccc(Br)cc3Cl)c(C(=O)NOCCO)cc21 [Selumetinib] (first compound max 1 µM, 7x7, partner max 3 µM) | -0.0006 | 0.072 | 0.0387 | 0.0907 | 0.0166 | -0.0001 | 0.0449 | 0.0771 | 0.0821 | 0.0514 | 0.0399 | 0.119 |  | 0.488 | 0.601 | 0.992 | 0.485 | 0.209 | 0.8 | 0.427
CN(CCO)CC[C@H](CSc1ccccc1)Nc1ccc(S(=O)(=O)NC(=O)c2ccc(N3CCC([C@@H](O)c4ccccc4-c4ccc(Cl)cc4)CC3)cc2)cc1S(=O)(=O)C(F)(F)F [AZD4320] + Nc1ccn([C@@H]2O[C@H](CO)[C@@H](O)C2(F)F)c(=O)n1 [Gemcitabine] (first compound max 1 µM, 7x7, partner max 0.3 µM) |  |  |  |  |  |  |  |  |  |  |  |  | -0.036 |  |  |  |  |  |  | 
Cc1cc2ncnn2cc1Nc1ncc2c(n1)n(C1CCOCC1)c(=O)n2C [AZD7648] + C=CCn1c(=O)c2cnc(Nc3ccc(N4CCN(C)CC4)cc3)nc2n1-c1cccc(C(C)(C)O)n1 [AZD1775] (first compound max 10 µM, partner max 1 µM) | 0.0133 | -0.012 | 0.0272 | -0.0029 | 0.0414 | -0.0069 | 0.0368 | -0.0086 | -0.0472 | 0.0567 | -0.0122 | 0.0029 |  | 0.893 | 0.52 | 0.628 | 0.91 | 0.569 | 0.766 | 0.473
Cc1cc2ncnn2cc1Nc1ncc2c(n1)n(C1CCOCC1)c(=O)n2C [AZD7648] + CCN(CCO)CCCOc1ccc2c(Nc3cc(CC(=O)Nc4cccc(F)c4)[nH]n3)ncnc2c1 [AZD2811] (first compound max 10 µM, 7x7, partner max 1 µM) | -0.0416 | 0.0417 | 0.053 | -0.0176 | 0.0507 | 0.0064 | -0.0065 | 0.113 | 0.0713 | 0.0569 | 0.0547 | -0.0147 |  | 0.242 | 0.234 | 0.191 | 0.325 | 0.506 | 0.355 | 0.293
Cc1cc2ncnn2cc1Nc1ncc2c(n1)n(C1CCOCC1)c(=O)n2C [AZD7648] + CN(C)CCCOc1ccc(-c2ccc3ncc4c(c3c2)n(C2CCOCC2)c(=O)n4C)cn1 [AZD0156] (first compound max 10 µM, 7x7, partner max 1 µM) | 0.0467 | 0.072 | 0.0734 | 0.0335 | 0.0414 | -0.0129 | 0.0329 | 0.0367 | 0.0351 | 0.03 | 0.0426 | 0.0061 |  | 0.225 | 0.221 | 0.299 | 0.221 | 0.371 | 0.253 | 0.27
Cc1cc2ncnn2cc1Nc1ncc2c(n1)n(C1CCOCC1)c(=O)n2C [AZD7648] + COc1cc([C@@H]2c3cc4c(cc3[C@@H](O[C@@H]3O[C@@H]5CO[C@@H](C)O[C@H]5[C@H](O)[C@H]3O)[C@H]3COC(=O)[C@H]23)OCO4)cc(OC)c1O [Etoposide] (first compound max 10 µM, 7x7, partner max 10 µM) |  |  |  |  |  |  |  |  |  |  |  |  | 0.0201 |  |  |  |  |  |  | 
Cc1cc2ncnn2cc1Nc1ncc2c(n1)n(C1CCOCC1)c(=O)n2C [AZD7648] + C[C@@H]1COCCN1C2=NC(=NC(=C2)C3(CC3)[S@](=N)(=O)C)C4=C5C=CNC5=NC=C4 [AZD6738] (first compound max 10 µM, 7x7, partner max 10 µM) | 0.0462 | 0.0308 | 0.024 | -0.0143 | 0.0489 | -0.0345 | 0.0336 | 0.0229 | -0.0187 | 0.0311 | 0.0176 | 0.0048 |  | 0.893 | 0.527 | 0.87 | 0.827 | 0.612 | 0.949 | 0.443
COc1cc2c(cc1OCCCCCOc1cc3c(cc1OC)C(=O)N1C=C(C)C[C@H]1C=N3)N=C[C@@H]1CC(C)=CN1C2=O [SG3199] + O=C(c1cc(Cc2n[nH]c(=O)c3ccccc23)ccc1F)N1CCN(C(=O)C2CC2)CC1 [Olaparib] (first compound max 0.001 µM, 7x7, partner max 10 µM) | -0.0316 | -0.0198 | 0.0403 | -0.0211 | -0.0144 | -0.0623 | -0.0099 | -0.0086 | -0.0265 | -0.0029 | 0.0073 | -0.0206 |  | 0 | 0.14 | 0.389 | 0.187 | 0.14 | 0.21 | 0.0893
N#Cc1cnc(Nc2cc(NC[C@H]3CNCCO3)c(C(F)(F)F)cn2)cn1 [SRA737] + C=CCn1c(=O)c2cnc(Nc3ccc(N4CCN(C)CC4)cc3)nc2n1-c1cccc(C(C)(C)O)n1 [AZD1775] (first compound max 10 µM, partner max 1 µM) |  |  |  |  |  |  |  |  |  |  |  |  | 0.0096 |  |  |  |  |  |  | 
N#Cc1cnc(Nc2cc(NC[C@H]3CNCCO3)c(C(F)(F)F)cn2)cn1 [SRA737] + CCc1c2c(nc3ccc(O)cc13)-c1cc3c(c(=O)n1C2)COC(=O)[C@]3(O)CC [SN-38] (first compound max 10 µM, 7x7, partner max 0.3 µM) |  |  |  |  |  |  |  |  |  |  |  |  | -0.0943 |  |  |  |  |  |  | 
N#Cc1cnc(Nc2cc(NC[C@H]3CNCCO3)c(C(F)(F)F)cn2)cn1 [SRA737] + Nc1ccn([C@@H]2O[C@H](CO)[C@@H](O)C2(F)F)c(=O)n1 [Gemcitabine] (first compound max 10 µM, 7x7, partner max 0.3 µM) |  |  |  |  |  |  |  |  |  |  |  |  | -0.101 |  |  |  |  |  |  | 
N#Cc1cnc(Nc2cc(NC[C@H]3CNCCO3)c(C(F)(F)F)cn2)cn1 [SRA737] + O=c1[nH]cc(F)c(=O)[nH]1 [5-Fluorouracil] (first compound max 10 µM, 7x7, partner max 20 µM) |  |  |  |  |  |  |  |  |  |  |  |  | -0.0137 |  |  |  |  |  |  | 
